In brackets after ≈: the same amount, converted by molar mass.
How the values were obtained:
[1] = system: transmembrane efflux pumps; experiment: Ethidium bromide accumulation assay; assay type: cell-based, S. aureus MSSA 2; settings: compared with comparator CCCP; concentrations 25–100 μM
Source text: The application of antibiotics often leads to oxidative stress in bacteria, which triggers the efflux pump systems that contribute to antimicrobial resistance.[34] Therefore, modulation of the efflux system has been proposed as another plausible target of derivatives. The efflux pump inhibitor carbonyl cyanide 3-chlorophenylhydrazone (CCCP) was used as a comparator in our assay. Its action destroys the proton-motive force at the membrane so that the efflux pump cannot transport substrates out of the cell. One such universal substrate is ethidium bromide, the accumulation of which in the cell can be measured using fluorescence.
The accumulation assay was performed according to previously published methods with minor modifications.[15],[42] Briefly, a bacterial culture of S. aureus MSSA 2 cultured overnight in the presence of colistin (4 mg/L) to induce oxidative stress and activate efflux system[34] was diluted in PBS to OD600 nm = 0.6. The suspension was centrifuged (13,000 × g; 3 min), resuspended in fresh PBS, and distributed into the wells of a black 96-well microtiter plate (ThermoFisher Scientific). Samples were diluted with EtBr solution (4 μg/mL). 50 μL of the mixture was added to 50 μL of the bacterial suspension. The reaction was monitored using SpectraMax iD5Multi-Mode Microplate Reader (ex/em = 530/600 nm) every 60 s for 60 min.

S. aureus CCM 4223 = experiment: Antibacterial activity, antibiotic-sensitive strain; assay type: cell-based; settings: Staphylococcus aureus, CCM4223, three repetitions ± SEM
[2] = system: Methicilin-Resistant S. aureus 331 Strain; experiment: Mode of antimicrobial action with erythromycin, ermC-positive strain; assay type: cell-based
Source text: Erythromycin is a macrolide antibiotic that inhibits proteosynthesis by binding to the 50S subunit of the ribosome. In Staphylococcus species, resistance to erythromycin is associated with the presence of methyltransferases (encoded by erm genes) that alter the ribosomal target site. Another typical mechanism of resistance to erythromycin is the presence of an ATP-dependent efflux pump encoded by the msr(A) gene or a major facilitator superfamily (MFS) pump encoded by the lmrS gene. Both efflux pumps reduce the concentration of erythromycin in the cell below the therapeutic dose by transporting it across the membrane to the extracellular space. Another erythromycin resistance gene is the mph(C) gene, the product of which is a phosphotransferase that alters the structure of macrolide antibiotics. To elucidate the mechanism of erythromycin resistance modulation in S. aureus, further tests were performed with the strains MRSA 331 and MRSA 3596, which inactivate erythromycin via a single mechanism (ermC and ermA, respectively). […] Therefore, if the activity was not strain-specific, it would be necessary to consider the effect of the derivatives on this pump (Table 3).
(§1) Sensitization of multidrug-resistant clinical bacterial strains was performed according to ref[15]. Antibiotic cutoff concentration was chosen according to the European Committee on Antimicrobial Susceptibility Testing (EUCAST, Clinical breakpoints–bacteria, ver. 11.0). The 200 μM concentration of the derivatives was chosen as the highest test concentration. The absorbance detected at 600 nm was then used to estimate the number of viable cells after 24 h of incubation at 37 °C and 120 rpm.
(§2) Experiments were performed with the respective number of replicates indicated in each figure/table. MIC was determined as IC70. Both IC70 and IC50 values were calculated using the following nonlinear regression in the software GraphPad Prism: […]

[3] = system: interleukin 6 (IL-6) production by RAW 264.7 stimulated by LPS; experiment: Anti-inflammatory activity: IL-6 production by LPS-stimulated macrophages; assay type: cell-based, Murine; settings: Mus musculus, RAW264.7; LPS-stimulated RAW 264.7; average of four repetitions ± SEM
Protocol: (§3) The anti-inflammatory activity of flavonoids was evaluated as their ability to decrease the production of signaling molecules that mediate inflammation, such as nitric oxide (NO), tumor necrosis factor (TNF-α), and interleukin 6 (IL-6), in LPS-stimulated macrophages.
(§4) The anti-inflammatory activity of the tested flavonoids was determined as the ability to reduce the production of nitric oxide (NO), tumor necrosis factor (TNF-α), and interleukin 6 (IL-6) by RAW 264.7 stimulated by LPS, as previously described.[39],[40] Briefly, 1 × 10^6 cells/mL was seeded into the 96-well plate (100 μL/well). After 48 h, LPS (100 ng/mL) and the samples (3–100 μM) were added to the MEM medium. After 24 h, the medium was mixed with Griess reagent (0.04 g/mL) at a 1:1 ratio. The absorbance was measured after 15 min at 540 nm. Cell viability was determined using the resazurin assay.
To determine TNF-α levels, cells were precultivated with the tested compounds for 24 h. After 2 h of incubation with LPS, the medium was diluted 1:10 with ELISA diluent. To determine the level of IL-6, cells were cultivated for 6 h with LPS and the tested compounds. Cytokine production was determined using an uncoated ELISA performed according to the manufacturer’s instructions.

[4] = system: human dermal fibroblasts (HDF); experiment: Cytotoxicity (resazurin assay), fibroblasts; assay type: cell-based; settings: Homo sapiens, Fibroblast, 72 h, read-out: HDF IC50 (concentration that halved the viability)
Protocol: (§5) The cytotoxicity of the prepared derivatives was evaluated by their ability to decrease the viability of immortalized human keratinocytes (HaCaT) and human dermal fibroblasts (HDF).
(§6) 100 μL of cell suspension containing 10^5 cells/mL was pipetted into a 96-well plate. After 24 h incubation, the tested compounds were added in the concentration range 12.5–200 μM. After 72 h incubation, the cell viability was tested by standard resazurin assay.[41] Briefly, the cells were washed with PBS and incubated with 100 μL of resazurin solution (0.025 mg/mL) for 2 h. The fluorescence was measured at a wavelength of 560 nm excitation/590 nm emission.

[5] = system: Staphylococcus aureus MRSA 9; experiment: Modulation of antibiotic-resistant phenotype (flavonoid plus breakpoint concentration of antibiotic); assay type: cell-based; settings: MIC determined as IC70, three repetitions ± SEM
Protocol: To evaluate the ability to modulate bacterial resistance, the tested flavonoids themselves cannot exert antimicrobial activity; therefore, the nontoxic concentration was used, as indicated in Table S5. Clinically relevant antibiotics were selected at breakpoint concentrations for susceptibility testing according to the European Committee on Antimicrobial Susceptibility Testing (EUCAST, version 11.0). […] Flavonoids and their derivatives (from 1 μM to the highest nontoxic concentration) were used in combination with the breakpoint concentration of the antibiotics. After coincubation, the minimum inhibitory concentration (MIC) of flavonoids inhibiting the visible growth of bacteria was determined (Table 2).
as §1, §2

[6] = system: immortalized human keratinocytes (HaCaT); experiment: Cytotoxicity (resazurin assay), keratinocytes; assay type: cell-based; settings: Homo sapiens, HaCaT, 72 h, read-out: HaCaT IC50 (concentration that halved the viability)
Protocol: as §5, §6

[7] = system: nitric oxide (NO) production by RAW 264.7 stimulated by LPS; experiment: Anti-inflammatory activity: NO production by LPS-stimulated macrophages; assay type: cell-based, Murine; settings: Mus musculus, RAW264.7; LPS-stimulated RAW 264.7; average of four repetitions ± SEM
Protocol: as §3, §4

With `O=c1cc(-c2ccc(O)c(O)c2)oc2cc(O)cc(O)c12` [compound 10, luteolin, reference compound] the “efflux inhibition (ethidium bromide accumulation), in words” value [1] was “significantly better than CCCP at the same concentration (100 μM)”, the IC50 (S. aureus CCM 4223) was over 200 µM and the “MIC, erythromycin [1 mg/L] yes” value ([2]; MRSA 331 (ermC), with erythromycin 1 mg/L) was 31.6 ± 2.5 µM (≈ 9.05 µg/mL). The “MIC, erythromycin [1 mg/L] no” value ([2]; MRSA 331 (ermC), without erythromycin) was 28.1 ± 0.3 µM (≈ 8.04 µg/mL), the “FIC (Fractional Inhibitory Concentration Index)” value ([2]; MRSA 331, with erythromycin) was 1.12 ± 0.10 and the IC50 [3] was 7.3 ± 0.2 µM. The IC50 [4] was 42.9 ± 3.4 µM, the “minimum inhibitory concentration (MIC) in the presence of erythromycin” value ([5]; erythromycin at breakpoint concentration 1 mg/L) was 147.3 ± 7.7 µM and the “minimum inhibitory concentration (MIC) in the presence of gentamicin” value ([5]; gentamicin at breakpoint concentration 1 mg/L) was 84.7 ± 1.8 µM. The IC50 [6] was 34.7 ± 1 µM and the IC50 [7] was 13.3 ± 0.2 µM.
